# Results as given in US6958321B2, “Isolation, characterization, cloning and use of a mushroom lectin” (The Regents of the University of Michigan, priority 2001, dated 2005).
# Legend:
# MOA = assay: Sugar ligand binding to MOA (hemagglutination inhibition, hapten inhibition of precipitation, calorimetry); parameters: species or system Marasmius oreades; conditions: binding to MOA in solution
# Experimental: All three methods gave approximately the same results, with the calorimetric data being the most precise.
# Being a blood type B agglutinin, MOA was assayed primarily against D-galactosyl-terminated sugars and oligosaccharides. […] Methyl α-galactopyranoside was similarly very poor. […] While not limited to any particular mechanism, and with the understanding that knowledge of the underlying mechanism is not required for the practice of the invention, it is believed that recognition of the L-fucosyl moiety is the reason for limited agglutination of human O erythrocytes and a weak precipitin curve with blood group H substance.
# [1] = target: T1, Marasmius oreades lectin (MOA, cMOA) (Marasmius oreades, UniProt Q8X123); assay: Isothermal titration calorimetry, MOA of Example 1 (proteolyzed, clipped form, cMOA); format: binding; conditions: for Ka / Kd / TΔS / −ΔG / −ΔH / ligand binding: isothermal titration calorimetry; for Ka, cMOA: proteolyzed (clipped) native lectin, Table 6
# T1 sequence (Q8X123 1-293): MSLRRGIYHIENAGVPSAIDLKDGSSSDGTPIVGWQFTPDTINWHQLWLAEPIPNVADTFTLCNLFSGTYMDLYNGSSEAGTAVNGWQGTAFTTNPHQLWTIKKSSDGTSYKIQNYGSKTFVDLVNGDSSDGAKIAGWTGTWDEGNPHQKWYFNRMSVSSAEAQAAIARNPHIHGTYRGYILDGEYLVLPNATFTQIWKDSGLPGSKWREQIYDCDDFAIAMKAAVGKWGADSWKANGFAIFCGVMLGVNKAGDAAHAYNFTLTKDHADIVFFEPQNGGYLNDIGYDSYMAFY
# recombinant MOA (rMOA) = target: T2, recombinant MOA (rMOA) (Marasmius oreades, UniProt Q8X123); assay: Isothermal titration calorimetry, recombinant MOA (rMOA); format: binding; conditions: read-out: Ka, rMOA (converted)
# T2 sequence (Q8X123 1-293): T1 sequence (Q8X123 1-293)
# Experimental: (§1) As this volume underfills the titration cell, variable volume calculations were applied, using the Bindworks software installed in the instrument. […] Finally, the trisaccharide L-Fucα1,2Ga1β1,4G1c (fucosyllactose), related to the blood group H trisaccbaride, was assayed. […] While not to be limited to any particular mechanism, it is believed that this may be the reason that MOA recognizes and agglutinates human O erythrocytes to a limited extent, and gives a weak precipitin curve with blood group H substance.
# Expression and characterization of recombinant MOA: A full-length PCR product incorporating NdeI and EcoRI into its forward and reverse primers, respectively, was cloned into PCR Blunt II using topoisomerase (Invitrogen) and subsequently shuttled into an IPTG inducible pT7 expression vector (MOApT7LO). Recombinant MOA was expressed in a Nova Blue DE3 strain of E. coli. Expressing bacteria were collected by centrifugation and resuspended in a lysis buffer consisting of 50 mM NaH2PO4, 300 mM NaCl, 10 mM imidizole, 10mM 2-mercaptoethanol, 1 mM phenylmethylsulfonyl fluoride, 1% NP-40, and a protease inhibitor cocktail. The extract was twice run through a french press. The insoluble fraction was removed by centrifugation (10,000×g, 15 min).
# (§2) Purification of recombinant MOA and native intact MOA-Recombinant MOA was purified from the soluble fraction by absorption on a column of melibiose-Sepharose and elution by lactose. Further purification was carried out on an affinity column of Synsorb B. Except for the diaminopropane elution, all affinity purifications were carried out in PBS, pH 7.2, containing 1.25 mM EDTA. After purification, lectin solutions were dialyzed against distilled water and lyophilized. […] Intact native MOA was prepared with a purification procedure (Example 2) that utilized a protease inhibitor cocktail (product P8215, Sigma, St. Louis, Mo.) which was added at the level of 0.1 ml/100 ml extract buffer (instead of phenylmethylsulfonyl fluoride), all buffers lacked Ca^++ and contained 1.25 mM EDTA, and the initial extraction and ammonium sulfate fractionations were carried out under an atmosphere of argon.
# (§3) Binding constants of several relevant oligosaccharides to recombinant and intact native MOA were determined calorimetrically.
# intact native MOA (nMOA) = target: T3, intact native MOA (nMOA) (Marasmius oreades, UniProt Q8X123); assay: Isothermal titration calorimetry, intact native MOA (nMOA); format: binding; conditions: read-out: Ka, nMOA (converted)
# T3 sequence (Q8X123 1-293): T1 sequence (Q8X123 1-293)
# Experimental: as §1, §2, §3
# immobilized MOA = assay: Binding to MOA-Sepharose 4B affinity column; parameters: species or system Marasmius oreades; conditions: washed with PBS, eluted with 20 mM diaminopropane
# Description: Further insight into the carbohydrate specificity of MOA was obtained by using immobilized MOA. Immobilization of MOA on a variety of supports is contemplated. In one embodiment, MOA is immobilized on a matrix that can be used in an affinity column (see below). In some embodiments, the matrix comprises Sepharose 4B beads. In some Embodiments, the MOA-conjugated Sepharose 4B beads are packed in a column for binding and affinity isolation and purification studies. Briefly, the MOA-Sepharose column is loaded with glycan, glycoconjugate or serum sample to be tested, then washed with an appropriate buffer (including but not limited to PBS). Bound components are eluted with a suitable elution buffer (including but not limited to 1,3-diaminopropane in NaCl), and the collected fractions are analyzed for the presence of protein or glycan (see Example 6 below). The fractions containing the bound components (eluted as described herein) can be pooled and concentrated.
# MOA was immobilized on cyanogen bromide-activated Sepharose 4B as follows. 1.5 g of cyanogen bromide-activated Sepharose 4B was allowed to swell in 100 ml of 1 mM HCl solution for 30 min. The supernatant was removed and the swollen beads (6 ml) were filtered on a sintered funnel, washed several times with 100 ml of 1 mM HCl and finally with 20 ml of 0.1 M sodium bicarbonate buffer, pH 8.3, containing 0.5 M sodium chloride. The beads were quickly transferred to a plastic bottle containing 16.2 mg MOA in the same buffer (10 ml) containing 0.2 M lactose. The plastic bottle was shaken at room temperature for 6 hr and at 4° C. overnight. The beads were filtered on a sintered glass funnel, washed with the coupling buffer, and then shaken in 1 M ethanolamine (12 ml) at room temperature for 2.5 hr to cap all of the unreacted iminocarbonate groups. The beads were filtered, washed alternately with the coupling buffer then sodium acetate buffer (0.1 M, pH 4.0 containing 0.5 M NaCl) four times. A column (1×7 cm) packed with the beads was finally washed with PBS containing 0.04% sodium azide. The beads contained 2.3 mg MOA per ml Sepharose 4B, based on MOA remaining in solution.
# In order to assess the binding of various glycans, glycoconjugates and serum samples to MOA-Sepharose, the following general procedure was used. The MOA-Sepharose column was loaded with glycan, glycoconjugate or serum sample (0.6-5 ml) and washed with PBS (15 ml). The bound components were eluted with 20 mM 1,3-diaminopropane in 0.15 M NaCl (15 ml). The fractions collected (1 ml) were neutralized with 1 M phosphoric acid (approximately 16 μl), and analyzed by either absorbance at 280 nm for protein, or by phenol-sulfuric acid assay, as described by Dubois et al. [Anal. Chem. 28: 350 (1956)] for the glycan. The column was finally washed thoroughly with PBS. The fractions containing the bound components were pooled and concentrated by Amicon ultrafiltration (Millipore Corp., Bedford, Mass.) using a membrane (YM10) of 10,000 molecular weight cut-off.
Compound,ligand binding (MOA),Ka [1] [M⁻¹],Kd [1] [µM],TΔS [1] [kcal/mol],−ΔG [1] [kcal/mol],−ΔH [1] [kcal/mol],Ka ([1]; Table 3),Kd (recombinant MOA (rMOA)) [µM],other results
"CC1OC(OC2C(OC3C(CO)OC(O)C(O)C3O)OC(CO)C(O)C2O)C(O)C(O)C1O [2′ Fucosyllactose, L-Fucα1,2Ga1β1,4G1c]",low but measurable binding,548,1830,6.4,3.70,10.1,.548 10^3 M^−1,–,–
"C[C@@H]1O[C@@H](O[C@H]2C(O)O[C@H](CO)[C@H](O)[C@@H]2O[C@H]2O[C@H](CO)[C@H](O)[C@H](O)[C@H]2O)[C@@H](O)[C@H](O)[C@@H]1O (some centres unmarked) [B trisaccharide, Galα1,3[Fucα1,2]Gal]",–,36000,36,14.6,6.01,20.6,27.8 10^3 M^−1,21.7,"enhancement of affinity to MOA relative to Galα1,3Gal ([1]; addition of an L-fucosyl group): 4 fold; Ka, cMOA [1]: 27.8 10^3 M^−1"
"OC[C@H]1O[C@H](O[C@H]2[C@@H](O)[C@@H](CO)OC(O)[C@@H]2O)[C@H](O)[C@@H](O)[C@H]1O (some centres unmarked) [Galα1,3Gal]",excellent ligand,6000,182,15.0,5.05,20.1,5.48 10^3 M^−1,37.5,"Kd (intact native MOA (nMOA)): 36.6 µM; affinity constant relative to that for Meα-Gal [1]: 44 fold; ligand binding ([1]; Table 3): excellent ligand; Ka, cMOA [1]: 5.48 10^3 M^−1"
"OC[C@H]1O[C@H](O[C@H]2[C@@H](O)[C@@H](CO)O[C@@H](O[C@H]3[C@H](O)[C@@H](O)C(O)O[C@@H]3CO)[C@@H]2O)[C@H](O)[C@@H](O)[C@H]1O (some centres unmarked) [Galα1,3Galβ1,4Glc]",–,–,–,–,–,–,–,75.8,Kd (intact native MOA (nMOA)): 59.9 µM
"OCC1OC(OC2C(O)OC(CO)C(O)C2O)C(O)C(O)C1O (stereo not drawn) [Galβ1,2Gal, Ga1α1,2Ga1]",bound poorly or not at all,–,> 10000,–,–,–,<0.1 10^3 M^−1,–,ligand binding ([1]; Table 3): bound poorly or not at all
"OCC1OC(OC2C(CO)OC(O)C(O)C2O)C(O)C(O)C1O (stereo not drawn) [Galβ1,4Gal, G1α1,4Ga1]",bound poorly or not at all,–,> 10000,–,–,–,<0.1 10^3 M^−1,–,ligand binding ([1]; Table 3): bound poorly or not at all
"OC[C@H]1O[C@@H](OC[C@H]2OC(O)[C@H](O)[C@@H](O)[C@H]2O)[C@H](O)[C@@H](O)[C@H]1O (some centres unmarked) [Galβ1,6Gal]",–,–,–,2.84,3.28,6.12,–,–,–
"CC(=O)N[C@H]1C(O)O[C@H](CO)[C@@H](O[C@@H]2O[C@H](CO)[C@H](O)[C@H](O)[C@H]2O)[C@@H]1O (some centres unmarked) [LacNAc, N-acetyllactosamine]",very poor ligands,–,3450,10.9,3.33,14.22,0.290 10^3 M^−1,1490,"Kd (intact native MOA (nMOA)): 2630 µM; Ka, cMOA [1]: 0.29 10^3 M^−1"
CO[C@@H]1O[C@H](CO)[C@@H](O)[C@H](O[C@@H]2O[C@H](CO)[C@H](O)[C@H](O)[C@H]2O)[C@H]1NC(C)=O [LactoNbioseβMe],–,–,4670,3.49,3.15,6.64,0.214 10^3 M^−1,–,–
OC[C@H]1O[C@@H](O[C@H]2[C@H](O)[C@@H](O)C(O)O[C@@H]2CO)[C@H](O)[C@@H](O)[C@H]1O (some centres unmarked) [Lactose],very poor ligands,185,5080,5.76,3.1,8.86,0.197 10^3 M^−1,–,–
"CC(=O)N[C@H]1C(O)O[C@H](CO)[C@@H](O[C@@H]2O[C@H](CO)[C@H](O)[C@H](O[C@H]3O[C@H](CO)[C@H](O)[C@H](O)[C@H]3O)[C@H]2O)[C@@H]1O (some centres unmarked) [Linear B2 trisacc., Galα1,3Galβ1,4GlcNAc]",–,9700,103,15.2,5.39,20.6,9.753 10^3 M^−1,33,"Kd (intact native MOA (nMOA)): 25.4 µM; increase of binding relative to Galα1,3Gal ([1]; addition of a GlcNAc group to the reducing end): approximately 50%; Ka, cMOA [1]: 9.75 10^3 M^−1"
"CO[C@H]1O[C@H](CO)[C@H](O)[C@H](O)[C@H]1O [Me-α-Gal, Methyl α-galactopyranoside]",very poor,–,8130,3.06,2.82,5.88,0.123 10^3 M^−1,–,–
"OC[C@H]1O[C@H](OCC2O[C@@H](O)[C@H](O)[C@@H](O)[C@@H]2O)[C@H](O)[C@@H](O)[C@H]1O (stereo partly drawn) [melibiose, Ga1α1,6G1c]",very poor ligands,–,–,–,–,–,–,–,–
"Ga1α1,6Ga1",bound poorly or not at all,–,–,–,–,–,–,–,ligand binding ([1]; Table 3): bound poorly or not at all
"asialofetuin: asialofetuin, with terminal Galβ1,4GlcNAc residues",–,–,–,–,–,–,–,–,binding to MOA-Sepharose column (immobilized MOA): passed through the column
degalactosylated bovine thyroglobulin: α-galactosidase-digested bovine thyroglobulin,–,–,–,–,–,–,–,–,binding to MOA-Sepharose column (immobilized MOA): passed through the column
